Laboratory results reported in patent US20100242139A1, “XENOHORMESIS BASED COMPOSITIONS AND METHODS” (President and Fellows of Harvard College, priority 2006, published 2010).

What was measured:
PKCβI(h) = PKCβI(h) (Homo sapiens, UniProt P05771); assay: kinase panel activity, PKCβI(h); assay type: biochemical; conditions: compound at 20 μM; vs reference with no compound
Abl(h) = Abl(h) (Homo sapiens, UniProt P00519); assay: kinase panel activity, Abl(h); assay type: biochemical; conditions: compound at 20 μM; vs reference with no compound
GSK3β(h) = GSK3β(h) (Homo sapiens, UniProt P49841); assay: kinase panel activity, GSK3β(h); assay type: biochemical; conditions: compound at 20 μM; vs reference with no compound
Chain of GSK3β(h) (P49841 whole entry): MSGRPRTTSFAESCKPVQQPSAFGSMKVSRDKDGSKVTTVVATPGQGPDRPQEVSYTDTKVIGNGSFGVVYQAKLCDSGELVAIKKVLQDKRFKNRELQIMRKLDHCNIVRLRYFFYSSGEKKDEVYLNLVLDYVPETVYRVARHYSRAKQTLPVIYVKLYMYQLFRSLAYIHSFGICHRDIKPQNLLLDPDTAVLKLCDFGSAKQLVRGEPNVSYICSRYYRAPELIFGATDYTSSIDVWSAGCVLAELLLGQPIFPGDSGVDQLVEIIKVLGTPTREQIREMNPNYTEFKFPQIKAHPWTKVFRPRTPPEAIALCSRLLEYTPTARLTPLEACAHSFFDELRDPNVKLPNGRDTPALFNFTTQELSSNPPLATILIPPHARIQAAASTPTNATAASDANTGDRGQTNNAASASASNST

Abl(T315I)(h) = Abl(T315I)(h) (Homo sapiens, UniProt P00519, T315I); assay: kinase panel activity, Abl(T315I)(h); assay type: biochemical; conditions: compound at 20 μM; vs reference with no compound
PKCδ(h) = PKCδ(h) (Homo sapiens, UniProt Q05655); assay: kinase panel activity, PKCδ(h); assay type: biochemical; conditions: compound at 20 μM; vs reference with no compound
Chain of PKCδ(h) (Q05655 whole entry): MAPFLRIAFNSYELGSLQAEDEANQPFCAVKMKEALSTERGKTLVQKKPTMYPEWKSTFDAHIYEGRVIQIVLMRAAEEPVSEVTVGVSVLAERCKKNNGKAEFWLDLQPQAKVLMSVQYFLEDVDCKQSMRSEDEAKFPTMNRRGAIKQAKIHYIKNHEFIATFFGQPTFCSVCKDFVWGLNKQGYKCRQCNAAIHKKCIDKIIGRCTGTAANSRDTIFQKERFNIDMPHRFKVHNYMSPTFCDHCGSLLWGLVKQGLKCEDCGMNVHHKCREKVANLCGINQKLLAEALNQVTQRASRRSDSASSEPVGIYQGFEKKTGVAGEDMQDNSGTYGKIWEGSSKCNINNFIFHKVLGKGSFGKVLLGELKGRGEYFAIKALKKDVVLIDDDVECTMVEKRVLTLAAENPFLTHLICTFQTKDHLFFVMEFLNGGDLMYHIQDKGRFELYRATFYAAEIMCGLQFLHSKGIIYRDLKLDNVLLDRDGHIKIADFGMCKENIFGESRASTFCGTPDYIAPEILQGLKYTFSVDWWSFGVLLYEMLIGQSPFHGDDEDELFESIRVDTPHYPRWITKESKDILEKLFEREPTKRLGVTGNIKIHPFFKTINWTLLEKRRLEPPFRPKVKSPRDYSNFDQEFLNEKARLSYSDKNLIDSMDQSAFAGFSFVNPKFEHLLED

cSRC(h) = cSRC(h) (Homo sapiens, UniProt P12931); assay: kinase panel activity, cSRC(h); assay type: biochemical; conditions: compound at 20 μM; vs reference with no compound
Chain of cSRC(h) (P12931 whole entry): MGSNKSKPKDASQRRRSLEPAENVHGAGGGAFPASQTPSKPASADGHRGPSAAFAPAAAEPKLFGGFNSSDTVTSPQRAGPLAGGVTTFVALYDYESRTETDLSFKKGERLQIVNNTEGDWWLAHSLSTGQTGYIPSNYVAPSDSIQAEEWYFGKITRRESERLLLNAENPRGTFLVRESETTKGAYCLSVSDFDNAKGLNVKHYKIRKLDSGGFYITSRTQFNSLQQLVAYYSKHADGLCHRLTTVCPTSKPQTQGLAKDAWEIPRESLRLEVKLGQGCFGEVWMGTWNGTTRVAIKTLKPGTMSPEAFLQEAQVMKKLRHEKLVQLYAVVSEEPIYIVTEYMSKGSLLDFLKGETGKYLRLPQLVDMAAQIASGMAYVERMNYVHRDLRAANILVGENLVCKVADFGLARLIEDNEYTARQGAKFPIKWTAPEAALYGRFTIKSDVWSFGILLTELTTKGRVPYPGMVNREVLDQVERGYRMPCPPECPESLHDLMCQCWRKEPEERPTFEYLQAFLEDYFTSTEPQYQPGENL

PAK3(h) = PAK3(h) (Homo sapiens, UniProt O75914); assay: kinase panel activity, PAK3(h); assay type: biochemical; conditions: compound at 20 μM; vs reference with no compound
JAK2(h) = JAK2(h) (Homo sapiens, UniProt O60674); assay: kinase panel activity, JAK2(h); assay type: biochemical; conditions: compound at 20 μM; vs reference with no compound
SAPK2a(T106M)(h) = SAPK2a(T106M)(h) (Homo sapiens, UniProt Q16539, T106M); assay: kinase panel activity, SAPK2a(T106M)(h); assay type: biochemical; conditions: compound at 20 μM; vs reference with no compound
Chain of SAPK2a(T106M)(h) (Q16539 whole entry T106M): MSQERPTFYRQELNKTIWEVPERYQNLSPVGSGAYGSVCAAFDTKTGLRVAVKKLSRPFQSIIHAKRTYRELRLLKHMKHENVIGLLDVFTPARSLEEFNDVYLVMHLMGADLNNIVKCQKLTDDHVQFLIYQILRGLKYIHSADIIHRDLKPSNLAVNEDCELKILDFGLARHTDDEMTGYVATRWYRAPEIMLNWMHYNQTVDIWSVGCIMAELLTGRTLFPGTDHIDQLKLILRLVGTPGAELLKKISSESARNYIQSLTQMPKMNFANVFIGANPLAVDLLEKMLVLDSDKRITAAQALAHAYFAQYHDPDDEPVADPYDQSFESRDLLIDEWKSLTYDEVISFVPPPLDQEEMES

Flt3(h) = Flt3(h) (Homo sapiens, UniProt P36888); assay: kinase panel activity, Flt3(h); assay type: biochemical; conditions: compound at 20 μM; vs reference with no compound
PKD2(h) = PKD2(h) (Homo sapiens, UniProt Q9BZL6); assay: kinase panel activity, PKD2(h); assay type: biochemical; conditions: compound at 20 μM; vs reference with no compound
PKCζ(h) = PKCζ(h) (Homo sapiens, UniProt Q05513); assay: kinase panel activity, PKCζ(h); assay type: biochemical; conditions: compound at 20 μM; vs reference with no compound
PKCγ(h) = PKCγ(h) (Homo sapiens, UniProt P05129); assay: kinase panel activity, PKCγ(h); assay type: biochemical; conditions: compound at 20 μM; vs reference with no compound
PAK2(h) = PAK2(h) (Homo sapiens, UniProt Q13177); assay: kinase panel activity, PAK2(h); assay type: biochemical; conditions: compound at 20 μM; vs reference with no compound
Chain of PAK2(h) (Q13177 whole entry): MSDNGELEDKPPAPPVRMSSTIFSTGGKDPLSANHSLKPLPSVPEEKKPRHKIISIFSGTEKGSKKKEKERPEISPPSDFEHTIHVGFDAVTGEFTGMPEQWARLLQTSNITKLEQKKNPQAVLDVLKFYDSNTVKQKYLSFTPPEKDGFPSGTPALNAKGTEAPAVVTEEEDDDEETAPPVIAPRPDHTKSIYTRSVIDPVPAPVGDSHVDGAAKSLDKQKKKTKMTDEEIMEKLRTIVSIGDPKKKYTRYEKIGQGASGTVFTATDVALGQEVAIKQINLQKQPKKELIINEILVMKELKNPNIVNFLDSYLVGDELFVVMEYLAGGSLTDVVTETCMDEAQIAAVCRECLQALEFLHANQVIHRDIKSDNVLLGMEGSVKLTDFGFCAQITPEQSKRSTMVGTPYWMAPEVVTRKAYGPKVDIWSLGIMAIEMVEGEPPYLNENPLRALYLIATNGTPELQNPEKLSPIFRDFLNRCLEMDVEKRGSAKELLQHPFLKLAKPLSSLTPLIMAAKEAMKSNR

Aurora-A(h) = Aurora-A(h) (Homo sapiens, UniProt O14965); assay: kinase panel activity, Aurora-A(h); assay type: biochemical; conditions: compound at 20 μM; vs reference with no compound
Chain of Aurora-A(h) (O14965 whole entry): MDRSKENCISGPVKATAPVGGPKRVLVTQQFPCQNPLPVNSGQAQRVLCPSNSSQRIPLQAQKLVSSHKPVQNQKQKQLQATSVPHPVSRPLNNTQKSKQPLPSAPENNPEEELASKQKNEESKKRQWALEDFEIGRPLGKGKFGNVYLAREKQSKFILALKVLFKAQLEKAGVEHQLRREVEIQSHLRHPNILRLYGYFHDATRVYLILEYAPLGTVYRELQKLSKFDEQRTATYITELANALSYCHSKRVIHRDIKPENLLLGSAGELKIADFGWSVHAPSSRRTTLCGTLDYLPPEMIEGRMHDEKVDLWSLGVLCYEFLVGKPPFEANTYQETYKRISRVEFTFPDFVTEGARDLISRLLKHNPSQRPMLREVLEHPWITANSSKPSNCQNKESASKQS

GSK3α(h) = GSK3α(h) (Homo sapiens, UniProt P49840); assay: kinase panel activity, GSK3α(h); assay type: biochemical; conditions: compound at 20 μM; vs reference with no compound
Chain of GSK3α(h) (P49840 whole entry): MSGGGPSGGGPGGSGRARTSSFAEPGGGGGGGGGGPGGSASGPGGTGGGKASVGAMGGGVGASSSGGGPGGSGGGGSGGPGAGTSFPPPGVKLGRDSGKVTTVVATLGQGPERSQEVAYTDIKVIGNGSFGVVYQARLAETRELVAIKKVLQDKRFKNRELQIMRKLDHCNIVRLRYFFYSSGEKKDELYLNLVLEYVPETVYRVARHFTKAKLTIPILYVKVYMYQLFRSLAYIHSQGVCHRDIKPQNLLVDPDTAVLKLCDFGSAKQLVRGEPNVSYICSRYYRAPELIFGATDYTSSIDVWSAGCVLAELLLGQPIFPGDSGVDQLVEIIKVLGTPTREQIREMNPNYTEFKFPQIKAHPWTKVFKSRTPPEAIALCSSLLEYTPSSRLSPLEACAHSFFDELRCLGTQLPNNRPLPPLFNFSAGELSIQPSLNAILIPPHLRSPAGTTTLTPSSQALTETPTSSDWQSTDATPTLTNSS

PKCθ(h) = PKCθ(h) (Homo sapiens, UniProt Q04759); assay: kinase panel activity, PKCθ(h); assay type: biochemical; conditions: compound at 20 μM; vs reference with no compound
Chain of PKCθ(h) (Q04759 whole entry): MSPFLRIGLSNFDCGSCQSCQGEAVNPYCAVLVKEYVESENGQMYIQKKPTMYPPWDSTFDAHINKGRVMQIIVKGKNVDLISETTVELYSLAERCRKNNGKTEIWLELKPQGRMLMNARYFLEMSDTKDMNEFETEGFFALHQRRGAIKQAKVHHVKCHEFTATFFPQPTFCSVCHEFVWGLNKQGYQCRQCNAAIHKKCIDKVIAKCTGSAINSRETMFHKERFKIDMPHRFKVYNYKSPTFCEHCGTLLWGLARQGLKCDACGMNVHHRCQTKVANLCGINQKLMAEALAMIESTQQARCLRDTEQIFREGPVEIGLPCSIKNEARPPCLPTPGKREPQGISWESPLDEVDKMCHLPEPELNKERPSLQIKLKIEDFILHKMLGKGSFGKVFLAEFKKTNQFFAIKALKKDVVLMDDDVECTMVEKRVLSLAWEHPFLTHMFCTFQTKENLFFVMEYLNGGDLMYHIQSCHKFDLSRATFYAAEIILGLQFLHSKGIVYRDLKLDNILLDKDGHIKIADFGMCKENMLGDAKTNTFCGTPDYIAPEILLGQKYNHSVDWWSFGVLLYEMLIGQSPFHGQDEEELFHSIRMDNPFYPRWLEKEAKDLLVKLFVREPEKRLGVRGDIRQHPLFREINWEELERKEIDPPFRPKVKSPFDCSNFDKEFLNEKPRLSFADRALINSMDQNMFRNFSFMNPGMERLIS

FL5.12 cells = assay: growth of hematopoietic cell line FL5.12; assay type: cell-based; conditions: 0.1, 1, 10 and 100 μM for 24 hours; in the presence of IL-3; Coulter counter
Text: Hematopoietic cell line FL5.12 cells were seed at equal density and grown in the presence of IL-3, a growth factor.

IRS-1 = IRS-1 expression and phosphorylation on a high calorie diet; assay type: in vivo
Text: In addition, IRS-1 is phosphorylated at serine 307 (referred to PIRS-1).

Chain of PKCβI(h) (P05771 whole entry): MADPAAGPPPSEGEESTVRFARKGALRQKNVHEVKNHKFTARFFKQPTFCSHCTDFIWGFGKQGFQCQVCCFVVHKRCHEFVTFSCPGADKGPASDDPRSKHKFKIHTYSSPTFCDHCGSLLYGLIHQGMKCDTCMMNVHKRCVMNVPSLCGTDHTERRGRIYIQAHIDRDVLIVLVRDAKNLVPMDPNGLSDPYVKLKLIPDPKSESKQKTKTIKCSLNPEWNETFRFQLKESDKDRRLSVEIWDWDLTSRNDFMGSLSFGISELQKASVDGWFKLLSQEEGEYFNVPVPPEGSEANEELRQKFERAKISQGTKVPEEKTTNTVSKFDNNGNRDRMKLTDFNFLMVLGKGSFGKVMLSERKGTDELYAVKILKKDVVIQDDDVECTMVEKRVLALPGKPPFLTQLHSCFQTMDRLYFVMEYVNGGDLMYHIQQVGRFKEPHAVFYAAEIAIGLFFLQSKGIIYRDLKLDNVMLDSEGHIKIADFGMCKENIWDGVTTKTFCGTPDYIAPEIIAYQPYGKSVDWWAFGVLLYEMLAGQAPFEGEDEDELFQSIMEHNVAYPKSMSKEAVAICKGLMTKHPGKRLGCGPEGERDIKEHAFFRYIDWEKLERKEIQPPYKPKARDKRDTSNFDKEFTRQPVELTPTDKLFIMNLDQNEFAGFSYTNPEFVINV

| Structure (SMILES) | percent activity of PKCβI(h) (PKCβI(h)) [%] | percent activity of Abl(h) (Abl(h)) [%] | percent activity of GSK3β(h) (GSK3β(h)) [%] | percent activity of Abl(T315I)(h) (Abl(T315I)(h)) [%] | percent activity of PKCδ(h) (PKCδ(h)) [%] | percent activity of cSRC(h) (cSRC(h)) [%] | percent activity of PAK3(h) (PAK3(h)) [%] | percent activity of JAK2(h) (JAK2(h)) [%] | percent activity of SAPK2a(T106M)(h) (SAPK2a(T106M)(h)) [%] | percent activity of Flt3(h) (Flt3(h)) [%] | percent activity of PKD2(h) (PKD2(h)) [%] | percent activity of PKCζ(h) (PKCζ(h)) [%] | percent activity of PKCγ(h) (PKCγ(h)) [%] | percent activity of PAK2(h) (PAK2(h)) [%] | percent activity of Aurora-A(h) (Aurora-A(h)) [%] | percent activity of GSK3α(h) (GSK3α(h)) [%] | percent activity of PKCθ(h) (PKCθ(h)) [%] | inhibition of FL5.12 cell growth (FL5.12 cells) | expression level of IRS-1 (IRS-1; approximately 22 mg/kg resveratrol added to diet) | proportion of phosphorylated IRS-1 (PIRS-1, serine 307) (IRS-1; resveratrol treatment) |
| --- | --- | --- | --- | --- | --- | --- | --- | --- | --- | --- | --- | --- | --- | --- | --- | --- | --- | --- | --- | --- |
| O=C(O)[C@H]1O[C@@H](Oc2ccc(/C=C/c3cc(O)cc(O)c3)cc2)[C@H](O)[C@@H](O)[C@@H]1O [Res 4′-Gluc, resveratrol-4-glucuronide] | 119 | 97 | 88 | 93 | 110 | 54 | 75 | 95 | 109 | 48 | 113 | 104 | 77 | 105 | 33 | 57 | 103 |  |  |  |
| Oc1ccc(C=Cc2cc(O)cc(O)c2)cc1 [resveratrol, 3,5,4′-trihydroxystilbene] |  |  | 92 |  |  | 61 |  |  | 102 |  |  |  |  |  | 65 | 79 |  | dose dependent inhibition | significantly reduced | increases |
